From PubChem BioAssay AID256 (DTP/NCI, 2004)
Several values for one entry are separate records, joined by “and”; a condition that tells them apart may be missing. Identical values can stand only once. Toxic doses and inconclusive results are not listed. How the source made its calls: active means survival T/C of 150% or more; inactive means T/C below 125% in these data.

System: CD2F1 mice, L1210 leukemia ip, survival T/C
Assay: NCI In Vivo Anticancer Drug Screen. Data for tumor model L1210 Leukemia (intraperitoneal) in CD2F1 (CDF1) mice
Conditions: endpoint: mean survival time, higher = longer survival
Outline: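 Antitumor effect is scored in animals hosting a serially transplanted tumor. Values compare compound-dosed animals against vehicle-only controls as a simple quotient.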

[1] = dose: 100.0 mg/kg/injection, schedule: Q01DX009 (ip), vehicle: Klucel (hydroxypropylcellulose) (HPC)
[2] = dose: 100.0 mg/kg/injection, schedule: Q01DX001 (ip), vehicle: saline with Tween-80
[3] = dose: 100.0 mg/kg/injection, schedule: Q01DX009 (ip), vehicle: saline with Tween-80
[4] = dose: 200.0 mg/kg/injection, schedule: Q01DX001 (ip), vehicle: saline with Tween-80
[5] = dose: 200.0 mg/kg/injection, schedule: Q01DX009 (ip), vehicle: saline with Tween-80
[6] = dose: 400.0 mg/kg/injection, schedule: Q01DX001 (ip), vehicle: saline with Tween-80
[7] = dose: 400.0 mg/kg/injection, schedule: Q01DX009 (ip), vehicle: saline with Tween-80
[8] = dose: 25.0 mg/kg/injection, schedule: Q04DX002 (ip), vehicle: saline with Tween-80
[9] = dose: 50.0 mg/kg/injection, schedule: Q04DX002 (ip), vehicle: saline with Tween-80
[10] = dose: 100.0 mg/kg/injection, schedule: Q04DX002 (ip), vehicle: saline with Tween-80
[11] = dose: 200.0 mg/kg/injection, schedule: Q04DX002 (ip), vehicle: saline with Tween-80
[12] = dose: 400.0 mg/kg/injection, schedule: Q04DX002 (ip), vehicle: saline with Tween-80
[13] = dose: 100.0 mg/kg/injection, schedule: Q01DX009 (ip), vehicle: saline
[14] = dose: 100.0 mg/kg/injection, schedule: Q01DX009 (ip), vehicle: other
[15] = dose: 100.0 mg/kg/injection, schedule: Q04DX003 (ip), vehicle: saline with Tween-80

Measured: T/C

O=C(O)c1ccc(Nc2c3ccccc3nc3ccccc23)cc1
active: dose: 44.0 mg/kg/injection, schedule: Q01DX009 (ip), vehicle: Klucel (hydroxypropylcellulose) (HPC) 170 % of control and 179 % of control | dose: 66.0 mg/kg/injection, schedule: Q01DX009 (ip), vehicle: Klucel (hydroxypropylcellulose) (HPC) 207 % of control and 225 % of control | dose: 75.0 mg/kg/injection, schedule: Q04DX003 (ip), vehicle: Klucel (hydroxypropylcellulose) (HPC) 154 % of control | [1] 167 % of control and 184 % of control | dose: 100.0 mg/kg/injection, schedule: Q04DX003 (ip), vehicle: Klucel (hydroxypropylcellulose) (HPC) 162 % of control | dose: 133.0 mg/kg/injection, schedule: Q04DX002 (ip), vehicle: Klucel (hydroxypropylcellulose) (HPC) 167 % of control | dose: 150.0 mg/kg/injection, schedule: Q04DX002 (ip), vehicle: Klucel (hydroxypropylcellulose) (HPC) 166 % of control | dose: 150.0 mg/kg/injection, schedule: Q04DX003 (ip), vehicle: Klucel (hydroxypropylcellulose) (HPC) 172 % of control and 223 % of control | dose: 200.0 mg/kg/injection, schedule: Q04DX002 (ip), vehicle: Klucel (hydroxypropylcellulose) (HPC) 223 % of control | dose: 225.0 mg/kg/injection, schedule: Q04DX003 (ip), vehicle: Klucel (hydroxypropylcellulose) (HPC) 301 % of control | dose: 300.0 mg/kg/injection, schedule: Q01DX001 (ip), vehicle: Klucel (hydroxypropylcellulose) (HPC) 171 % of control and 201 % of control | dose: 300.0 mg/kg/injection, schedule: Q04DX002 (ip), vehicle: Klucel (hydroxypropylcellulose) (HPC) 212 % of control and 293 % of control | dose: 450.0 mg/kg/injection, schedule: Q04DX002 (ip), vehicle: Klucel (hydroxypropylcellulose) (HPC) 225 % of control
inactive: dose: 75.0 mg/kg/injection, schedule: Q01DX001 (ip), vehicle: Klucel (hydroxypropylcellulose) (HPC) 121 % of control | dose: 88.0 mg/kg/injection, schedule: Q01DX001 (ip), vehicle: Klucel (hydroxypropylcellulose) (HPC) 119 % of control | dose: 300.0 mg/kg/injection, schedule: Q04DX003 (ip), vehicle: Klucel (hydroxypropylcellulose) (HPC) 118 % of control

COC(=O)C1OC(OC(C)=O)C(OC(C)=O)C(OC(C)=O)C1C(=O)OC (stereo not drawn)
inactive: [2] 93 % of control | [3] 101 % of control | [4] 95 % of control | [5] 105 % of control | [6] 93 % of control | [7] 105 % of control

CCOC(=O)CCC(C(=O)OCC)N1C(=O)c2ccccc2C1=O (stereo not drawn)
inactive: [8] 100 % of control | [9] 103 % of control | [10] 100 % of control

CC1(C(=O)O)CC2CCC1CC2 (stereo not drawn)
inactive: [9] 96 % of control | [10] 107 % of control | [11] 100 % of control | [12] 96 % of control

CCCC(=O)c1c(C)cc(C)cc1C
inactive: dose: 100.0 mg/kg/injection, schedule: Q04DX003 (ip), vehicle: other 98 % of control | dose: 200.0 mg/kg/injection, schedule: Q04DX003 (ip), vehicle: other 104 % of control | dose: 400.0 mg/kg/injection, schedule: Q04DX003 (ip), vehicle: other 98 % of control

O=C(NNc1cccc(Cl)c1)C(O)C(O)C(O)C(O)CO (stereo not drawn)
inactive: dose: 50.0 mg/kg/injection, schedule: Q01DX009 (ip), vehicle: saline 93 % of control | [13] 108 % of control | dose: 200.0 mg/kg/injection, schedule: Q01DX009 (ip), vehicle: saline 96 % of control

CCOC(=O)Nc1cccc([N+](=O)[O-])c1
inactive: [14] 98 % of control | dose: 200.0 mg/kg/injection, schedule: Q01DX009 (ip), vehicle: other 113 % of control

S=c1[nH]nc2n1NC(c1ccoc1)=NN2
inactive: dose: 25.0 mg/kg/injection, schedule: Q04DX003 (ip), vehicle: saline with Tween-80 96 % of control | dose: 50.0 mg/kg/injection, schedule: Q04DX003 (ip), vehicle: saline with Tween-80 100 % of control | [15] 90 % of control and 93 % of control | dose: 200.0 mg/kg/injection, schedule: Q04DX003 (ip), vehicle: saline with Tween-80 107 % of control

Cc1cc(N)c(S(=O)(=O)NO)cc1Cl
inactive: [2] 96 % of control | [4] 96 % of control | [6] 102 % of control

COc1cc2c(cc1OC)-c1cc(C)c3cc(OC)c(OC)cc3[n+]1CC2
inactive: dose: 25.0 mg/kg/injection, schedule: Q01DX009 (ip), vehicle: other 109 % of control | dose: 50.0 mg/kg/injection, schedule: Q01DX009 (ip), vehicle: other 115 % of control | [14] 109 % of control

CN(C)CCN(C)C
inactive: [13] 96 % of control | dose: 400.0 mg/kg/injection, schedule: Q01DX009 (ip), vehicle: saline 106 % of control

O=C(Nc1ccccc1)c1ccccc1C1(O)c2ccccc2-c2ccccc21
inactive: [3] 88 % of control | [5] 92 % of control | [7] 91 % of control

O=C(c1cccnc1)c1cc2ccccc2n1S(=O)(=O)c1ccccc1
inactive: [2] 97 % of control | [4] 97 % of control | [6] 97 % of control

Cc1cccc(NC(=O)COc2cc(Cl)c(Cl)cc2Cl)c1
inactive: [10] 98 % of control | [11] 98 % of control | [12] 94 % of control

O=[N+]([O-])c1c[n+]([O-])ccc1Cl
inactive: dose: 5.0 mg/kg/injection, schedule: Q01DX001 (ip), vehicle: saline 101 % of control | dose: 10.0 mg/kg/injection, schedule: Q01DX001 (ip), vehicle: saline 103 % of control

Brc1ccc2[nH]c3c(c2c1)CSc1ccccc1-3
inactive: [1] 104 % of control | dose: 200.0 mg/kg/injection, schedule: Q01DX009 (ip), vehicle: Klucel (hydroxypropylcellulose) (HPC) 108 % of control | dose: 400.0 mg/kg/injection, schedule: Q01DX009 (ip), vehicle: Klucel (hydroxypropylcellulose) (HPC) 112 % of control

N#CC(C#N)CN(C1=NCCO1)c1cccc2c1CCCC2
inactive: [8] 94 % of control | [9] 94 % of control | [10] 98 % of control | [15] 89 % of control | dose: 400.0 mg/kg/injection, schedule: Q04DX003 (ip), vehicle: saline with Tween-80 89 % of control

CCOC(=O)c1c(O)c2c([nH]c1=O)CCc1ccccc1-2
inactive: dose: 12.5 mg/kg/injection, schedule: Q01DX009 (ip), vehicle: saline with Tween-80 98 % of control | dose: 25.0 mg/kg/injection, schedule: Q01DX001 (ip), vehicle: saline with Tween-80 98 % of control | dose: 25.0 mg/kg/injection, schedule: Q01DX009 (ip), vehicle: saline with Tween-80 95 % of control | dose: 50.0 mg/kg/injection, schedule: Q01DX001 (ip), vehicle: saline with Tween-80 93 % of control | dose: 50.0 mg/kg/injection, schedule: Q01DX009 (ip), vehicle: saline with Tween-80 95 % of control | [2] 103 % of control

COc1cc2c(c(OC)c1OC)-c1ccc(SC)c(=O)cc1[C@@H](NC1OC(COC(C)=O)C(OC(C)=O)C(OC(C)=O)C1OC(C)=O)CC2 (stereo partly drawn)
inactive: dose: 1.5 mg/kg/injection, schedule: Q01DX009 (ip), vehicle: other 97 % of control | dose: 3.0 mg/kg/injection, schedule: Q01DX009 (ip), vehicle: other 97 % of control | dose: 6.0 mg/kg/injection, schedule: Q01DX009 (ip), vehicle: other 97 % of control | dose: 12.0 mg/kg/injection, schedule: Q01DX009 (ip), vehicle: other 96 % of control | dose: 24.0 mg/kg/injection, schedule: Q01DX009 (ip), vehicle: other 96 % of control

CC(C)OC(=O)c1cc([N+](=O)[O-])cc([N+](=O)[O-])c1Sc1ncnc2nc[nH]c12
active: dose: 18.8 mg/kg/injection, schedule: Q01DX005 (ip), vehicle: other 156 % of control
inactive: dose: 0.63 mg/kg/injection, schedule: Q01DX005 (ip), vehicle: other 115 % of control | dose: 1.25 mg/kg/injection, schedule: Q01DX005 (ip), vehicle: other 118 % of control | dose: 2.5 mg/kg/injection, schedule: Q01DX005 (ip), vehicle: other 115 % of control
